Reference: patent publication US11179398B2, “Purine derivative for use in the treatment or prevention of diseases caused by a nonsense mutation” (MUSÉUM NATIONAL D'HISTOIRE NATURELLE, priority 2016, dated 2021)
“Also recorded” adds a separate entry of the source. Where two headings read alike, the source gives them in different places. Marks after values point to notes of the source that are not given here.

Key:
[1] = test system: luciferase gene carrying a UGA premature stop codon; assay: Luciferase readthrough assay in transfected HeLa cells, UGA construct; type: cell-based, human; details: for correcting activity of nonsense mutations (luciferase activity): 25 μM, 24 hours; for concentration at which the molecule starts to significantly correct the nonsense mutation: dose-response 0.39 μM to 600 μM; for concentration of maximum correction effectiveness: luciferase activity
Description: The DMSO represents the negative control.

[2] = test system: Salmonella typhimurium TA1535; details: positive control
Experimental: (§1) The positive controls used are:
(§2) The experiments were conducted once in triplicate.

[3] = test system: Salmonella typhimurium TA102; details: positive control, TA102, with S9, 5.00 μg/well
Experimental: as §1, §2

[4] = test system: Salmonella typhimurium TA100; details: positive control
Experimental: as §1, §2

[5] = test system: Salmonella typhimurium TA1537; assay: Compensatory mutation test on bacteria, TA1537; details: positive control, TA1537, with S9, 5.0 μg/well
Experimental: (§5) The test was conducted in the absence or presence of a metabolic solution called S9 mixture (S9 mixture of rat liver treated with aroclor. The concentration of the S9 fraction in the S9 mixture is of 10%).
(§6) The solvent used is dimethyl sulfoxide (DMSO), the volume containing the molecule to be tested or DMSO alone is of 25 μl per well.
(§7) For the tests conducted in the presence of the S9 mixture, 2-anthranine at 1 μg/well for the TA98, TA100 and TA1535 strains or of 5 μg/well for the TA102 or TA1537 strains.
(§8) The treatment in the absence of presence of the S9 mixture was conducted by adding it directly in the wells.

[6] = test system: Salmonella typhimurium TA98; assay: Compensatory mutation test on bacteria, TA98; details: positive control, TA98, with S9, 1.00 μg/well
Experimental: as §5, §6, §7, §8

[7] = test system: L5178Y TK+/- cells; assay: In vitro test of the micronuclei; details: for treated/solvent ratio: positive control
Experimental: (§9) The cells used are L5178Y TK^+/− cells obtained from ATCC (American Type Culture Collection, Manassas, USA) via Biovalley (Marne-la-Vallée, France) for the induction of micronuclei.
(§10) In the test with metabolic activation, the culture medium is supplemented with 5% of the S9 mixture, thus the final concentration of S9 in the treated medium is of 2%.
(§11) The cells were treated for 24 hours in the absence of the S9 mixture or treated for 3 hours followed by 24 hours of culture without treatment when the S9 mixture was present in the culture medium.
(§12) The experiment was conducted and 1000 single-nucleus cells were analysed per culture.
(§13) The assessment of the cytotoxicity was determined by measuring the doubling of the cell population at the end of the experiment.

[8] = test system: Calu-6 cells; assay: Phenotype of culture cells under white light microscope; type: cell-based
[9] = test system: NMD (mRNA p53 in Calu-6 cells); assay: NMD inhibition: RT-PCR of p53 mRNA carrying a UGA nonsense mutation; type: cell-based; details: 6.25 μM, 25 μM, 24 hours
Description: The RNAs were purified with RNazol (MRC) and underwent a RT-PCR as described in Gonzalez-Hilarion et al. (2012). The resulting cDNA were then amplified after 35 cycles of PCR using the p53 sense primer (5′-[…]-3′; SEQ ID NO: 1), antisense p53 (5′-[…]-3′; SEQ ID NO: 2), sense GAPDH (5′-[…]-3′; SEQ ID NO: 3), antisense GAPDH (5′-[…]-3′; SEQ ID NO: 4).

[10] = test system: p53 target genes p21 and Noxa in Calu-6 cells; assay: Expression of p53 target genes p21 and Noxa by RT-PCR; type: cell-based; details: 20 hours
Description: The RNAs were purified with RNazol (MRC) and underwent a RT-PCR as described in Gonzalez-Hilarion et al. (2012). The resulting cDNA were then amplified after 35 cycles of PCR using the p21 mRNA primers (sense: 5′-[…]-3′; SEQ ID NO: 5; antisense 5′-[…]-3′; SEQ ID NO: 6); GADD45 mRNA (sense: 5′-[…]-3′; SEQ ID NO: 7; antisense 5′-[…]-3′; SEQ ID NO: 8); NOXA mRNA (sense: 5′-[…]-3′; SEQ ID NO: 9; antisense 5′-[…]-3′; SEQ ID NO: 10).

[11] = test system: gene TP53 carrying an UAG mutation at codon 204 (Caco-2 cells); assay: Western blot of p53 re-expression in Caco-2 cells; type: cell-based
Experimental: (§3) For the purpose of validating the above screening results, the correction of nonsense mutations was measured for endogenous genes carrying nonsense mutations in an immortalised cell line of lung cancer Calu-6 (ATCC, USA) comprising a UGA mutation in the codon 196 of the gene TP53 (FIG. 2A), an immortalised cell line Caco-2 carrying a UAG mutation at the level of codon 204 (FIG. 2B) and an immortalised cell line Caov-3 carrying a UAA nonsense mutation at the level of codon 136 (FIG. 2C).
(§4) The proteins are extracted from the cell in a lysis buffer, then analysed by SDS-PAGE gel at 10% as previously described in Gonzalez-Hilarion et al. (2012). Briefly, after migration, the proteins are transferred onto a nitrocellulose membrane and placed in the presence of an anti-p53 antibody (D01; Santa-Cruz), and then of a secondary anti-mouse antibody (Jackson Immuno Research).

[12] = test system: luciferase gene carrying a premature UGA stop codon; assay: Synergy with clitocin, luciferase UGA readthrough assay in HeLa cells; type: cell-based, human; details: DAP alone at 25 μM
Experimental: The luciferase activity is measured by adding the SteadyLite plus substrate (Perkin Elmer) to the culture medium and the plates are read with a Tristar luminometer (Berthold). The plate is read twice.

[13] = test system: gene TP53 carrying an UGA nonsense mutation at codon 196 (Calu-6 cells); assay: Western blot of p53 re-expression in Calu-6 cells; type: cell-based
Experimental: as §3, §4

[14] = test system: L5178Y TK+/- cells; details: mouse
Experimental: as §9, §10, §11, §12, §13

[15] = test system: luciferase gene carrying a UAG premature stop codon; assay: Luciferase readthrough assay in transfected HeLa cells, UAG construct; details: 25 μM
Description: (§14) The position of the premature stop codon is such that if the protein synthesis stops at the premature stop codon, the synthesised truncated luciferase protein is not functional.

[16] = test system: gene TP53 carrying an UAA nonsense mutation at codon 136 (Caov-3 cells); assay: Western blot of p53 re-expression in Caov-3 cells; type: cell-based
Experimental: as §3, §4

[17] = test system: luciferase gene carrying a UAA premature stop codon; assay: Luciferase readthrough assay in transfected HeLa cells, UAA construct; details: 25 μM
Description: as §14

[18] = test system: Calu-6 cells; assay: Cellular growth and apoptosis measurement; type: cell-based
Experimental: Briefly, the cells are removed from their support using typisin and centrifuged for 5 minutes at 200 g.

[19] = TA1535, without S9, 0.5 μg/well

Sc1ncc2[nH]cnc2n1 [2-mercaptopurine]
correcting activity of nonsense mutations (luciferase activity) ([1]; HeLa cells): do not have a correcting activity; also recorded: no correction activity

Nc1ccc2cc3ccccc3cc2c1 [2AM, 2-anthramine]
average number of revertants per well ([2]; TA1535, with S9, 1.0 μg/well): 137.7
treated/solvent ratio ([2]; TA1535, with S9, 1.0 μg/well): 41.3
average number of revertants per well [3]: 91.0
treated/solvent ratio [3]: 2.0
average number of revertants per well ([4]; TA100, with S9, 1.0 μg/well): 696.0
treated/solvent ratio ([4]; TA100, with S9, 1.0 μg/well): 17.4
average number of revertants per well [5]: 36.0
treated/solvent ratio [5]: 13.5
average number of revertants per well [6]: 686.7
treated/solvent ratio [6]: 98.1

Sc1ncnc2nc[nH]c12 [6-mercaptopurine]
correcting activity of nonsense mutations (luciferase activity) ([1]; HeLa cells): do not have a correcting activity; also recorded: no correction activity

O=P1(N(CCCl)CCCl)NCCCO1 (stereo not drawn) [CPA, cyclophosphamide, reference compound]
treated/solvent ratio ([7]; with S9 mix, 6 μg/mL): 60.0 **

Nc1nc(N)c2nc[nH]c2n1 [DAP, 2,6-diaminopurine]
concentration from which more dying cells (round appearance) are observed [8]: ≥ 600 µM
inhibition of NMD (stabilising an mRNA carrying a premature stop codon) [9]: not an NMD inhibitor
correcting activity of nonsense mutations (luciferase activity) ([1]; HeLa cells): able to correct the UGA stop codons much more effectively than G418 or ataluren
correction of the nonsense UGA mutation (luciferase activity) compared with G418 at 25 μM ([1]; DAP at 25 μM, HeLa cells): eighteen times more effective
correction of the nonsense UGA mutation (luciferase activity) compared with G418 at 2400 μM ([1]; DAP at 25 μM, HeLa cells): more than three times more effective
EC50 ([1]; Homo sapiens, HeLa): 54 µM
correction of the UGA nonsense mutation compared with G418 ([1]; both at 6.25 μM): five times higher
concentration at which the molecule starts to significantly correct the nonsense mutation [1]: 6.25 µM
concentration of maximum correction effectiveness ([1]; HeLa cells): 100 µM
concentration from which the expression of the target genes of p53 increases [10]: ≥ 6.25 µM
re-expression of protein p53 [11]: does not make it possible to re-express the protein
luminescence measured [12]: 50,000
synthesis of readthrough protein ([13]; 25 μM of DAP versus G418 600 μM): greater than with G418
minimal concentration at which wild-size protein p53 (p53 FL) is detected ([13]; Calu-6 cells, 20 hours, Western blot): 6.25 µM
concentration of maximum production of p53 FL ([13]; Calu-6 cells, Western blot): 25 µM
DP (% of the control substance) ([14]; 3 h, 0.01 nM): 76 % of the control substance
DP (% of the control substance) ([14]; 3 h, 0.02 nM): 89 % of the control substance
DP (% of the control substance) ([14]; 3 h, 0.04 nM): 91 % of the control substance
DP (% of the control substance) ([14]; 3 h, 0.07 nM): 74 % of the control substance
DP (% of the control substance) ([14]; 3 h, 0.29 nM): 73 % of the control substance
DP (% of the control substance) ([14]; 3 h, 0.58 nM): 54 % of the control substance
DP (% of the control substance) ([14]; 3 h, 2.33 nM): 44 % of the control substance
DP (% of the control substance) ([14]; 3 h, 4.66 nM): 40 % of the control substance
reduction of the doubling of the population ([14]; 24 h): 79-100%
DP (% of the control substance) ([14]; 24 h, 0.01 nM): 91 % of the control substance
DP (% of the control substance) ([14]; 24 h, 0.02 nM): 121 % of the control substance
DP (% of the control substance) ([14]; 24 h, 0.04 nM): 78 % of the control substance
DP (% of the control substance) ([14]; 24 h, 0.07 nM): 97 % of the control substance
effect on the UAG codon (luciferase activity) [15]: no effect
doses with severe cytotoxicity ([7]; in the absence of the S9 mixture, 24 hours): greater than 0.15 mM
doses with slight cytotoxicity ([7]; in the presence of the S9 mixture, 3 hours + 24 hours): greater than 0.07 mM
genotoxic effect (frequency of cells containing micronuclei) ([7]; in the presence or absence of the S9 mixture, listed as 2,6-DAP): no genotoxic effect; also recorded: does not induce any damage to the chromosomes or cell machinery involved in the cell division
re-expression of protein p53 [16]: does not make it possible to re-express the protein p53
effect on the UAA codon (luciferase activity) [17]: no effect
percentage of apoptotic cells ([18]; DAP 6.25 μM or 25 μM, D4 to D10): ≤ 15%

CN[C@@H]1[C@@H](O)[C@@H](O[C@@H]2[C@@H](O)[C@H](O[C@H]3O[C@H]([C@@H](C)O)[C@@H](O)[C@H](O)[C@H]3N)[C@@H](N)C[C@H]2N)OC[C@]1(C)O [G418]
concentration at which the molecule starts to significantly correct the nonsense mutation [1]: 6.25 µM
concentration of maximum correction effectiveness ([1]; HeLa cells): > 600 µM
percentage of apoptotic cells ([18]; G418 600 μM, from the 4th day of culture): > 30%

CO[C@@]12[C@H](COC(N)=O)C3=C(C(=O)C(C)=C(N)C3=O)N1C[C@@H]1N[C@@H]12 [MMC, mitomycin C, reference compound]
treated/solvent ratio ([7]; without S9 mix): 100.0 **

[N-]=[N+]=[N-] [NaN3, sodium azide]
average number of revertants per well [2, 19]: 206.7
treated/solvent ratio [2, 19]: 77.5
average number of revertants per well ([4]; TA100, without S9, 1.0 μg/well): 232.3
treated/solvent ratio ([4]; TA100, without S9, 1.0 μg/well): 5.5

O=C(O)c1cccc(-c2noc(-c3ccccc3F)n2)c1 [ataluren]
correcting activity of nonsense mutations (luciferase activity) ([1]; HeLa cells): ineffective; also recorded: no correction activity
